Legend:
Notch signaling = conditions: background; cited from earlier work
3xTg AD mice = assay: Morris water maze test in AD-3xTg mice; assay type: in vivo
Method: Red dot, starting point of the swim; green dot, end point of the swim.
N=4 for wild-type and 10 mg/kg donepezil-treated 3xTg mice. N=6 for vehicle-treated 3xTg mice, 60 mg/kg n-BP-treated 3xTg mice, and 120 mg/kg n-BP-treated 3xTg mice. *p-value<0.05, **p-value<0.01 (Student's t-test). […] After 4-12 months, the B6 (C57/BL6) control mice have no AP accumulation (Green color).
The mice behavioral experiment using Morris water maze is a classical test to detect short-term memory and complex memory. Through its behavior, it can be determined whether there is a difference in memory after drug treatment. […] Two sessions were conducted on Day 1 as follows: (1) mice were placed in the swimming pool to adapt to the environment for a training duration of 120 seconds; (2) a hidden rest platform was added to the pool at a precise location in the northwest corner of the pool (blue diamond in the east; red circle in the west and yellow triangle in the south as shown in FIG. 7G) and the mice were allowed for to swim in the pool for a duration of another 120 seconds. If the rescue platform was not found by the mouse within the allocated time, the mouse was guided to the platform. The test for finding the rescue platform is carried out for the next four consecutive days, with each session lasting 90 seconds. The result is collected and analyzed.

SH-SY5Y = assay: Aβ1-42 poisoning experiment in SH-SY5Y cells (MTT); assay type: cell-based, human; conditions: n-butylidenephthalide 100 μM, vitamin C 200 μM, alone or in combination, Aβ1-42 1 μM
From the text: Then, the cell viability is detected by a cell survival test using (3-(4,5-dimethylthiazol-2-yl)-2,5-diphenyltetrazolium bromide (MTT) assay.

3′-UTR of PSEN-1 = assay: Dual luciferase assay with PSEN-1 3′-UTR reporter constructs in SH-SY5Y cells; assay type: cell-based, human; conditions: 50 nM miR-29b-2-5p
Method: The relative ratios of Renilla and firefly luciferase activity were measured.
The specificity and inhibitory effect of miRNA-29b-2-5p on the specific sequence of PSEN-1 can be confirmed by a dual luciferase assay. The dual luciferase assay includes two luminescence proteins, namely firefly luciferase (molecular weight 61 kDa, emission wavelength at about 560 nm) isolated from firefly (Photlnus pyralls) and Renilla luciferase (molecular weight 31 kDa, emission wavelength at about 480 nm) isolated from Renilla reniformis, which are combined with the sequence to be analyzed and cloned into a vector for amplification. After transfection into cells, the cells emit luminescence. To investigate the influence of these complementary sites, neuroblastoma cell line (SH-SY5Y) as shown in FIG. 2D is used as the cell model and 2 constructs containing continuous complementary (wild type) and noncomplementary (mutant) target site were designed as shown in FIG. 2E. The constructs were then transfected with a miR-29b-2-5p mimic into the SH-SY5Y cell line. The present disclosure uses three different PSEN-1 sequences for dual luciferase analysis, including the wild-type 3′-UTR sequence of PSEN-1, the site 2 mutant having a mutation at site 2 sequence of PSEN-1 that is predicted to be complementary to miRNA-29b-2-5p and double mutant in which both the site 1 and site 2 sequences, which are the sequences of PSEN-1 predicted to be complementary to miRNA-29b-2-5p, are mutated.

[1] = tested on: PSEN-1, PSEN-2, Aβ1-42 and NICD in C6-C99 cells; assay: Western blotting of amyloid-related proteins in C6-C99 cells; assay type: cell-based; conditions: C6-C99 cells transfected with miR-29b-2-5p mimic; compared with control cells; n=3
From the text: FIG. 3B to FIG. 3E are the quantitative results of the Western blotting analysis of PSEN-1, PSEN-2, β-amyloid 1-42 (Aβ1-42) and NICD in FIG. 3A, respectively (p*<0.05, p**<0.01). The C6-C99 cells used in FIGS. 3A to 3E are glioma cells having a fragment of human amyloid precursor protein (APP). This fragment is a peptide fragment with 99 amino acids (APP-C99), which can express large amounts of PSEN-1, PSEN-2, and Aβ 1-42 after activation by cumate.
Western blotting is used to detect the expression levels of amyloid-related proteins, including PSEN-1, PSEN-2, and β-amyloid 1-42 (Aβ1-42), while simultaneously detect the expression level of Notch protein (Notch intracellular domain, NICD), which is an indicator of drug safety. If the Notch protein is not affected, then drug safety is indicated.
APP-C99 was transfected into C6 cells with the C99 peptide through cumate-inducible system activation.

[2] = tested on: PSEN-1, PSEN-2, Aβ1-42 and NICD in C6-C99 cells; assay: as above; assay type: cell-based; conditions: C6-C99 cells transfected with miR-29b-2-5p mimic, compared with control cells, n=3
lnc-CYP3A43-2 = assay: Biotin-based pulldown assay with real-time PCR; conditions: real-time PCR of miRNA; n=3
From the text: Then, a biotin-based pulldown assay was used to validate this interaction. The result shown in FIG. 6H indicates the lnc-CYP3A43-2 can affect target miR-29b-2-5p (41.84-fold).

## CC(C)[C@H](O)C(=O)N[C@@H](C)C(=O)N[C@@H]1C(=O)N(C)CCc2ccccc21 [LY450139]
Notch signaling
  Adverse reactions: causes skin tumors and differentiation of intestinal epithelial cell
  Effect on Notch signaling: damages Notch signaling

## COc1cc2c(cc1OC)C(=O)C(CC1CCN(Cc3ccccc3)CC1)C2 (stereo not shown) [donepezil, reference compound]
3xTg AD mice; 120 mg/kg n-BP, donepezil as positive control
  Locating and arriving at the resting platform: able to quickly locate and arrive at the resting platform
3xTg AD mice; Day 5, 120 mg/kg n-BP, 10 mg donepezil/kg, vs untreated 3xTg mice
  Time required to find the platform: significantly lower

## O=C1O[C@H]([C@@H](O)CO)C(O)=C1O [vitamin C, ascorbic acid, reference compound]
SH-SY5Y
  Cell survival, protection against Aβ1-42 damage: has an effect on increasing cell survival

## miR-29b-2-5p: mature miRNA-29b-2-5p nucleic acid, sequence cugguuucacaugguggcuuag (SEQ ID NO.: 1); used as mimic (CUGGUUUCACAUGGUGGCUUAG; listed as RNA, chemistry not given here; listed as Homo sapiens)
3′-UTR of PSEN-1
  Luminescence of reporter, PSEN-1 double site mutant: abolished the inhibitory effect
  Luminescence of reporter, PSEN-1 site 2 mutant: abolished the inhibitory effect
  Luminescence of reporter, wild type 3′-UTR of PSEN-1: decreased the expression of the reporter
3′-UTR of PSEN-1; listed as miRNA-29b-5p
  Luminescence of reporter, PSEN-1 double site mutant: no significant difference in the luminescence emitted
  Luminescence of reporter, PSEN-1 site 2 mutant: no significant difference in the luminescence
  Luminescence of reporter, wild type 3′-UTR of PSEN-1: the luminescence emitted was inhibited
[1]
  PSEN1 expression: 100%±19.31%
[2]
  Aβ1-42 expression: 48.75%±26.77%
[2]; listed as miRNA-29b-2-5p
  Aβ1-42 expression: decreased
  PSEN1 expression: decreased
lnc-CYP3A43-2
  miR-29b-2-5p in lnc-CYP3A43-2 pulldown: 41.84 fold

Source: patent US20220096431A1, “PHARMACEUTICAL COMPOSITION AND METHOD FOR PREVENTING, TREATING AND DIAGNOSING A NEURODEGENERATIVE DISEASE” (BUDDHIST TZU CHI MEDICAL FOUNDATION, priority 2020, published 2022)
